Read-outs that look alike come from different tables or passages of the source.
Key:
[1] = target: human norepinephrine transporter (NET) (Homo sapiens (Human), UniProt P23975); test: Binding assay to human norepinephrine transporter (NET) ([3H]-Nisoxetin); settings: Table 2, dual compounds; [3H]-Nisoxetin binding
Procedure, shortened: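 NET-enriched membranes (5 μg) incubated with 5 nM [3H]-nisoxetin in 50 mM Tris-HCl, 120 mM NaCl, 5 mM KCl, pH 7.4, 60 min at 4 °C. Bound ligand separated by filtration on PEI-soaked GF/C and counted by scintillation; nonspecific binding defined with 1 μM competitor.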

[2] = target: human α2δ-1 subunit of Cav2.2 calcium channel (Homo sapiens (Human), UniProt P54289); test: Binding assay to human α2δ-1 subunit of Cav2.2 calcium channel ([3H]-Gabapentin); settings: read-out: Ki (nM) α2δ-1
human α2δ-1 subunit of Cav2.2 calcium channel, sequence (P54289 25-1103): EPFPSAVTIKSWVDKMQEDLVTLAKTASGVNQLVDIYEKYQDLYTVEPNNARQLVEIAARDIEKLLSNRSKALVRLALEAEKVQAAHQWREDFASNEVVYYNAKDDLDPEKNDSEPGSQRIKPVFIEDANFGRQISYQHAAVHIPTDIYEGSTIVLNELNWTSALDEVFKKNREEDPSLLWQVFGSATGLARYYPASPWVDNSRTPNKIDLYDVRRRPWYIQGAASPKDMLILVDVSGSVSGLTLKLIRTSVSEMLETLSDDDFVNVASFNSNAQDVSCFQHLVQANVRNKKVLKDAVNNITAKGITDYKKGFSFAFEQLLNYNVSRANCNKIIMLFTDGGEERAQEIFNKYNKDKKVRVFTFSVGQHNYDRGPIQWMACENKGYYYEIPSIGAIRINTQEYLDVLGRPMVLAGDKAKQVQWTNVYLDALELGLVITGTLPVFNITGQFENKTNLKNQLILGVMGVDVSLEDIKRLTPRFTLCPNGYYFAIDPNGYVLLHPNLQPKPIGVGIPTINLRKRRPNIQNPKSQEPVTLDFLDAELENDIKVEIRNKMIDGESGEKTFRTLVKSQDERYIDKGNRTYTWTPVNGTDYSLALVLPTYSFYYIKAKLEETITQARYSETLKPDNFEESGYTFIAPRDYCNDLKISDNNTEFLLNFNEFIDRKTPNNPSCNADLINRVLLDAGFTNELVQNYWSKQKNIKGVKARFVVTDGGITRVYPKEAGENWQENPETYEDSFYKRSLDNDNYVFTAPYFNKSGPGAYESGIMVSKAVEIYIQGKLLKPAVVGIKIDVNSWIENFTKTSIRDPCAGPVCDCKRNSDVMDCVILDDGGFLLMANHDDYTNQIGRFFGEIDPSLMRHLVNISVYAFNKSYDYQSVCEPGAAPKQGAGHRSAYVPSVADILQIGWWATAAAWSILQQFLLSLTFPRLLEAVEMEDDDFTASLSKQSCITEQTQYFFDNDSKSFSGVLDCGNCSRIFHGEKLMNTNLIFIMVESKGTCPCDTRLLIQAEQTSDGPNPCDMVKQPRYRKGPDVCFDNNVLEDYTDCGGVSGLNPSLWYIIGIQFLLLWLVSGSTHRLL
Procedure, shortened: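 Radioactivity on dried GF/C filters quantified by scintillation after filtration and three cold Tris-HCl (pH 7.4) washes. Incubation ran 60 min at 27° C with [3H]-gabapentin; 10 μM pregabalin gave nonspecific binding.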

[3] = Table 2, dual compounds, [3H]-Gabapentin binding
[4] = binding to α2δ-1, [3H]-Gabapentin

human norepinephrine transporter (NET), sequence (P23975 whole entry): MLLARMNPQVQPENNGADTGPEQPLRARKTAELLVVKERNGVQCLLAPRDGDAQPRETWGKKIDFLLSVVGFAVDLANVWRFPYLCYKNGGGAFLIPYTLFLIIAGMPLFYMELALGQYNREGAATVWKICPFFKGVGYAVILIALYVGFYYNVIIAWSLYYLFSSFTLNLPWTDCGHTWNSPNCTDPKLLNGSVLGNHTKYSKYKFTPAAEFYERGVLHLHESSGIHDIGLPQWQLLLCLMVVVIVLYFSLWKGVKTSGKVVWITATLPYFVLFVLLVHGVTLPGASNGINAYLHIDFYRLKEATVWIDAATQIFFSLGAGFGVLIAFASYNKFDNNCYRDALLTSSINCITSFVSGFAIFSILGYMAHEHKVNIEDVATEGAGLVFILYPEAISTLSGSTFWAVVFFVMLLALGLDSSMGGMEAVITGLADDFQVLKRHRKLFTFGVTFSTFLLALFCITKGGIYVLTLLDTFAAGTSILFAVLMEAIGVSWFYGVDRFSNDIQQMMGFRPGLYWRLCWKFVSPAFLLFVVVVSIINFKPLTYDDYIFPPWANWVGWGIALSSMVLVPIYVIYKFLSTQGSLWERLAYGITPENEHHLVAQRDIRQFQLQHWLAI

Ki [1] | Ki [2, 3] | Ki [2, 4] | Structure (SMILES)
< 100 nM | 500 to 3000 nM | 500 to 3000 nM | CCNc1ncc2c(n1)N(C)CCN(c1cccc(-n3cc(CN4CCC(c5ccccc5)CC4)nn3)c1)C2=O [Example 278, 2-(Ethylamino)-9-methyl-6-(3-(4-((4-phenylpiperidin-1-yl)methyl)-1H-1,2,3-triazol-1-yl)phenyl)-6,7,8,9-tetrahydro-5H-pyrimido[4,5-e][1,4]diazepin-5-one]
< 100 nM | 500 to 3000 nM | 500 to 3000 nM | CCNc1ncc2c(n1)N(C)CCN(c1cccc(-n3cc(CN(C)Cc4ccccc4)nn3)c1)C2=O [Example 243, 6-(3-(4-((benzyl(methyl)amino)methyl)-1H-1,2,3-triazol-1-yl)phenyl)-2-(ethylamino)-9-methyl-6,7,8,9-tetrahydro-5H-pyrimido[4,5-e][1,4]diazepin-5-one]
< 100 nM | > 3000 nM | > 3000 nM | CNCCC(OCc1ccc(N2CCN(C)c3nc(SC)ncc3C2=O)cc1)c1cccs1 (stereo not drawn) [Example 328, 9-methyl-6-(4-((3-(methylamino)-1-(thiophen-2-yl)propoxy)methyl)phenyl)-2-(methylthio)-6,7,8,9-tetrahydro-5H-pyrimido[4,5-e][1,4]diazepin-5-one]
100 to 500 nM | 100 to 500 nM | 100 to 500 nM | CNCC[C@@H](OCc1cccc(N2CCN(C)c3nc(N(C)Cc4ccccn4)ncc3C2=O)c1)c1ccccc1 [Example 341, (R)-9-methyl-2-(methyl(pyridin-2-ylmethyl)amino)-6-(3-((3-(methylamino)-1-phenylpropoxy)methyl)phenyl)-6,7,8,9-tetrahydro-5H-pyrimido[4,5-e][1,4]diazepin-5-one]
< 100 nM | 500 to 3000 nM | 500 to 3000 nM | CNCCC(OCc1cccc(N2CCN(C)c3nc(NCc4ccccc4)ncc3C2=O)c1)c1ccccc1 (stereo not drawn) [Example 335, 2-(benzylamino)-9-methyl-6-(3-((3-(methylamino)-1-phenylpropoxy)methyl)phenyl)-6,7,8,9-tetrahydro-5H-pyrimido[4,5-e][1,4]diazepin-5-one]
100 to 500 nM | > 3000 nM | > 3000 nM | CNCCC(OCc1ccc(CN2CCN(C)c3nc(SC)ncc3C2=O)cc1)c1ccccc1 (stereo not drawn) [Example 368, 9-methyl-6-(4-((3-(methylamino)-1-phenylpropoxy)methyl)benzyl)-2-(methylthio)-6,7,8,9-tetrahydro-5H-pyrimido[4,5-e][1,4]diazepin-5-one]
500 to 1000 nM | 500 to 3000 nM | 500 to 3000 nM | CCNc1ncc2c(n1)N(C)CCN(c1cccc(CO[C@H](CCN(C)C)c3ccccc3)c1)C2=O [Example 236, (R)-6-(3-((3-(Dimethylamino)-1-phenylpropoxy)methyl)phenyl)-2-(ethylamino)-9-methyl-6,7,8,9-tetrahydro-5H-pyrimido[4,5-e][1,4]diazepin-5-one]
< 100 nM | 500 to 3000 nM | 500 to 3000 nM | CNCCC(Oc1cccc(N2CCN(C)c3nc(SC)ncc3C2=O)c1)c1ccccc1 (stereo not drawn) [Example 151, 9-methyl-6-(3-(3-(methylamino)-1-phenylpropoxy)phenyl)-2-(methylthio)-6,7,8,9-tetrahydro-5H-pyrimido[4,5-e][1,4]diazepin-5-one]
> 1000 nM | > 3000 nM | > 3000 nM | CSc1ncc2c(n1)N(C)CCN(c1cccc(COC3(c4ccccc4)CCNCC3)c1)C2=O [Example 179, 9-methyl-2-(methylthio)-6-(3-(((4-phenylpiperidin-4-yl)oxy)methyl)phenyl)-6,7,8,9-tetrahydro-5H-pyrimido[4,5-e][1,4]diazepin-5-one]
< 100 nM | 500 to 3000 nM | 500 to 3000 nM | CCc1ncc2c(n1)N(C)CCN(Cc1ccc(OC(CCNC)c3ccccc3)cc1)C2=O (stereo not drawn) [Example 426, 2-ethyl-9-methyl-6-(4-(3-(methylamino)-1-phenylpropoxy)benzyl)-6,7,8,9-tetrahydro-5H-pyrimido[4,5-e][1,4]diazepin-5-one]
100 to 500 nM | 500 to 3000 nM | 500 to 3000 nM | CCNc1ncc2c(n1)N(C)CCN(Cc1ccc(O[C@H](CCNC)c3ccccc3)cc1)C2=O [Example 415, (R)-2-(ethylamino)-9-methyl-6-(4-(3-(methylamino)-1-phenylpropoxy)benzyl)-6,7,8,9-tetrahydro-5H-pyrimido[4,5-e][1,4]diazepin-5-one]
> 1000 nM | 500 to 3000 nM | 500 to 3000 nM | CCNc1ncc2c(n1)N(C)CCN(c1cccc(OC(CCNC)c3cccnc3)c1)C2=O (stereo not drawn) [Example 194, 2-(ethylamino)-9-methyl-6-(3-(3-(methylamino)-1-(pyridin-3-yl)propoxy)phenyl)-6,7,8,9-tetrahydro-5H-pyrimido[4,5-e][1,4]diazepin-5-one]
100 to 500 nM | > 3000 nM | > 3000 nM | CNCC[C@H](OCc1cccc(N2CCN(C)c3nc(SC)ncc3C2=O)c1)c1ccccc1 [Example 165, (S)-9-methyl-6-(3-((3-(methylamino)-1-phenylpropoxy)methyl)phenyl)-2-(methylthio)-6,7,8,9-tetrahydro-5H-pyrimido[4,5-e][1,4]diazepin-5-one]
< 100 nM | > 3000 nM | > 3000 nM | CCNc1ncc2c(n1)N(C)CCN(c1ccc(COC(CNC)c3ccccc3)cc1)C2=O (stereo not drawn) [Example 340, 2-(ethylamino)-9-methyl-6-(4-((2-(methylamino)-1-phenylethoxy)methyl)phenyl)-6,7,8,9-tetrahydro-5H-pyrimido[4,5-e][1,4]diazepin-5-one]
100 to 500 nM | 500 to 3000 nM | 500 to 3000 nM | CCc1ncc2c(n1)N(C)CCN(c1cccc(CO[C@H](CCNC)c3ccccc3)c1)C2=O [Example 356, (R)-2-ethyl-9-methyl-6-(3-((3-(methylamino)-1-phenylpropoxy)methyl)phenyl)-6,7,8,9-tetrahydro-5H-pyrimido[4,5-e][1,4]diazepin-5-one]
100 to 500 nM | 100 to 500 nM | 100 to 500 nM | CNCC[C@@H](OCc1cccc(N2CCN(C)c3nc(N(C)Cc4cccnc4)ncc3C2=O)c1)c1ccccc1 [Example 342, (R)-9-methyl-2-(methyl(pyridin-3-ylmethyl)amino)-6-(3-((3-(methylamino)-1-phenylpropoxy)methyl)phenyl)-6,7,8,9-tetrahydro-5H-pyrimido[4,5-e][1,4]diazepin-5-one]
100 to 500 nM | 500 to 3000 nM | 500 to 3000 nM | CNCC[C@@H](Oc1cccc(N2CCN(C)c3nc(SC)ncc3C2=O)c1)c1ccccc1 [Example 152, (R)-9-methyl-6-(3-(3-(methylamino)-1-phenylpropoxy)phenyl)-2-(methylthio)-6,7,8,9-tetrahydro-5H-pyrimido[4,5-e][1,4]diazepin-5-one]
100 to 500 nM | 100 to 500 nM | 100 to 500 nM | CNCC[C@H](Oc1ccc(CN2CCN(C)c3ccncc3C2=O)cc1)c1cccs1 [Example 382, (S)-1-methyl-4-(4-(3-(methylamino)-1-(thiophen-2-yl)propoxy)benzyl)-1,2,3,4-tetrahydro-5H-pyrido[4,3-e][1,4]diazepin-5-one]
100 to 500 nM | 500 to 3000 nM | 500 to 3000 nM | CCNc1ncc2c(n1)N(C)CCN(Cc1ccc(COC(CNC)c3ccccc3)cc1)C2=O (stereo not drawn) [Example 413, 2-(ethylamino)-9-methyl-6-(4-((2-(methylamino)-1-phenylethoxy)methyl)benzyl)-6,7,8,9-tetrahydro-5H-pyrimido[4,5-e][1,4]diazepin-5-one]
> 1000 nM | 500 to 3000 nM | 500 to 3000 nM | CCNc1cc2c(cn1)C(=O)N(c1cccc(COC(CCNC)c3ccccc3)c1)CCN2C (stereo not drawn) [Example 199, 8-(ethylamino)-1-methyl-4-(3-((3-(methylamino)-1-phenylpropoxy)methyl)phenyl)-1,2,3,4-tetrahydro-5H-pyrido[4,3-e][1,4]diazepin-5-one]
100 to 500 nM | 100 to 500 nM | 100 to 500 nM | CNCC[C@H](Oc1cccc(N2CCN(C)c3cc(N)ncc3C2=O)c1)c1cccs1 [Example 304, (S)-8-amino-1-methyl-4-(3-(3-(methylamino)-1-(thiophen-2-yl)propoxy)phenyl)-1,2,3,4-tetrahydro-5H-pyrido[4,3-e][1,4]diazepin-5-one]
500 to 1000 nM | 500 to 3000 nM | 500 to 3000 nM | CNCC[C@@H](OCc1cccc(N2CCN(C)c3ncncc3C2=O)c1)c1ccccc1 [Example 207, (R)-9-methyl-6-(3-((3-(methylamino)-1-phenylpropoxy)methyl)phenyl)-6,7,8,9-tetrahydro-5H-pyrimido[4,5-e][1,4]diazepin-5-one]
100 to 500 nM | > 3000 nM | > 3000 nM | CCNc1ncc2c(n1)N(C)CCN(c1ccc(COC(CCNC)c3cccs3)cc1)C2=O (stereo not drawn) [Example 348, 2-(ethylamino)-9-methyl-6-(4-((3-(methylamino)-1-(thiophen-2-yl)propoxy)methyl)phenyl)-6,7,8,9-tetrahydro-5H-pyrimido[4,5-e][1,4]diazepin-5-one]
100 to 500 nM | 500 to 3000 nM | 500 to 3000 nM | CCNc1ncc2c(n1)N(C)CCN(c1cccc(-n3cc(CN(C)Cc4ccccn4)nn3)c1)C2=O [Example 288, 2-(ethylamino)-9-methyl-6-(3-(4-((methyl(pyridin-2-ylmethyl)amino)methyl)-1H-1,2,3-triazol-1-yl)phenyl)-6,7,8,9-tetrahydro-5H-pyrimido[4,5-e][1,4]diazepin-5-one]
500 to 1000 nM | 500 to 3000 nM | > 3000 nM | CCNc1ncc2c(n1)N(C)CCN(c1cccc(COCC(NC)c3ccccc3)c1)C2=O (stereo not drawn) [Example 166, 2-(ethylamino)-9-methyl-6-(3-((2-(methylamino)-2-phenylethoxy)methyl)phenyl)-6,7,8,9-tetrahydro-5H-pyrimido[4,5-e][1,4]diazepin-5-one]

Reference: patent US10590140B2, “Tetrahydropyrimidodiazepine and dihydropyridodiazepine compounds for treating pain and pain related conditions” (ESTEVE PHARMACEUTICALS, S.A., priority 2016, dated 2020)
